Assay results: ChEMBL document CHEMBL4368868, “Selected aryl thiosemicarbazones as a new class of multi-targeted monoamine oxidase inhibitors” (Medchemcomm, 2018)

Columns and labels:
[1] = biological target: Acetylcholinesterase (Electrophorus electricus, UniProt O42275)
[2] = biological target: T1, Amine oxidase [flavin-containing] B (Homo sapiens, UniProt P27338); test: Inhibition of MAOB (unknown origin) assessed as residual activity at 10 uM using benzylamine as substrate preincubated for 30 mins followed by substrate addition relative to control; details: read-out: Activity
T1 sequence (P27338 whole entry): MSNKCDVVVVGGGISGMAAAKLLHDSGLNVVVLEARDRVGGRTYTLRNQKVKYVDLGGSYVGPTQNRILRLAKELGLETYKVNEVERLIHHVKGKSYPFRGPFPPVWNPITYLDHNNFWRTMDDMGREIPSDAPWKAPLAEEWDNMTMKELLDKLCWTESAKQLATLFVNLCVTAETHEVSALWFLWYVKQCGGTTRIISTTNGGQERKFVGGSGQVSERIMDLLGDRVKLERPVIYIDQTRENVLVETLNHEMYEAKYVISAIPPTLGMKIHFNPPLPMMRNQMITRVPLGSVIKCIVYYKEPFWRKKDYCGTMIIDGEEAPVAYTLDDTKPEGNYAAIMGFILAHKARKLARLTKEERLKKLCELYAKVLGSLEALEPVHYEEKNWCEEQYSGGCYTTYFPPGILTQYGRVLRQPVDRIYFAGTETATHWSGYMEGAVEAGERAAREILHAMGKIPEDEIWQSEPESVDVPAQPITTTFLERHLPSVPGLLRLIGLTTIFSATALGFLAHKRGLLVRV

[3] = biological target: T2, Amine oxidase [flavin-containing] A (Homo sapiens, UniProt P21397)
T2 sequence (P21397 whole entry): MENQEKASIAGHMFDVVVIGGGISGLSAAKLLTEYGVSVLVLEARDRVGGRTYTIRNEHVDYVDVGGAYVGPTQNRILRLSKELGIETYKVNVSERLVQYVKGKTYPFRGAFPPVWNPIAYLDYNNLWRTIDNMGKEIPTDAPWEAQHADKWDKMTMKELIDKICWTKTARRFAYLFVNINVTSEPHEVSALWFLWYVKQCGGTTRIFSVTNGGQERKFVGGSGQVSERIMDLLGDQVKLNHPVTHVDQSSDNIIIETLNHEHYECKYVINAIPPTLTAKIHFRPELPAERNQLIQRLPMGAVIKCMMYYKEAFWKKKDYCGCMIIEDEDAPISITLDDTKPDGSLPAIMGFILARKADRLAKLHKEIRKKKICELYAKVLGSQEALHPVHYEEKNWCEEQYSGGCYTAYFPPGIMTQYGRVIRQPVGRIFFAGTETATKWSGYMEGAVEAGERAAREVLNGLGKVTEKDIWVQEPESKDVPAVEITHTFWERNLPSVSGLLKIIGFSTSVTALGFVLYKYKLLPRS

[4] = biological target: T1, Amine oxidase [flavin-containing] B
[5] = biological target: T2, Amine oxidase [flavin-containing] A; test: Inhibition of MAOA (unknown origin) assessed as residual activity at 10 uM using kynuramine as substrate preincubated for 30 mins followed by substrate addition relative to control; details: read-out: Activity
[6] = Permeability of the compound in PBS/EtOH at 100 ug/ml incubated for 16 hrs by PAMPA; format: ADME; details: read-out: permeability
[7] = species on record: Homo sapiens; test: Selectivity index, ratio of IC50 for MAOA (unknown origin) to IC50 for MAOB (unknown origin)
[8] = biological target: T1, Amine oxidase [flavin-containing] B; details: 0.5 h
[9] = biological target: T1, Amine oxidase [flavin-containing] B; test: Reversible inhibition of MAOB (unknown origin) assessed as residual enzyme activity at 0.54 uM using benzylamine as substrate measured after 30 mins relative to control; details: 0.5 h, read-out: Activity
[10] = biological target: T1, Amine oxidase [flavin-containing] B; test: Competitive inhibition of MAOB (unknown origin) using varying levels of benzylamine as substrate preincubated for 15 mins followed by substrate addition and measured by Lineweaver-burk plot analysis
[11] = biological target: T1, Amine oxidase [flavin-containing] B; test: Reversible inhibition of MAOB (unknown origin) assessed as residual enzyme activity at 0.54 uM using benzylamine as substrate pre-incubated for 30 mins followed by dialysis with pH 7.2 sodium phosphate buffer relative to control; details: read-out: Activity
[12] = biological target: T1, Amine oxidase [flavin-containing] B; test: Reversible inhibition of MAOB (unknown origin) assessed as residual enzyme activity at 0.08 uM using benzylamine as substrate measured after 30 mins relative to control; details: 0.5 h, read-out: Activity
[13] = biological target: T1, Amine oxidase [flavin-containing] B; test: Reversible inhibition of MAOB (unknown origin) assessed as residual enzyme activity at 0.08 uM using benzylamine as substrate pre-incubated for 30 mins followed by dialysis with pH 7.2 sodium phosphate buffer relative to control; details: read-out: Activity
[14] = biological target: T2, Amine oxidase [flavin-containing] A; test: Reversible inhibition of MAOA (unknown origin) assessed as residual enzyme activity at 3.6 uM using kynuramine as substrate measured after 30 mins relative to control; details: 0.5 h, read-out: Activity
[15] = biological target: T2, Amine oxidase [flavin-containing] A; test: Reversible inhibition of MAOA (unknown origin) assessed as residual enzyme activity at 3.6 uM using kynuramine as substrate pre-incubated for 30 mins followed by dialysis with pH 7.2 sodium phosphate buffer relative to control; details: read-out: Activity
[16] = biological target: T2, Amine oxidase [flavin-containing] A; test: Competitive inhibition of MAOA (unknown origin) using varying levels of kynuramine as substrate preincubated for 15 mins followed by substrate addition and measured by Lineweaver-burk plot analysis
[17] = biological target: T2, Amine oxidase [flavin-containing] A; test: Irreversible inhibition of MAOA (unknown origin) assessed as residual enzyme activity at 0.014 uM using kynuramine as substrate measured after 30 mins relative to control; details: 0.5 h, read-out: Activity
[18] = biological target: T2, Amine oxidase [flavin-containing] A; test: Irreversible inhibition of MAOA (unknown origin) assessed as residual enzyme activity at 0.014 uM using kynuramine as substrate pre-incubated for 30 mins followed by dialysis with pH 7.2 sodium phosphate buffer relative to control; details: read-out: Activity
[19] = biological target: T2, Amine oxidase [flavin-containing] A; test: Reversible inhibition of MAOA (unknown origin) assessed as residual enzyme activity at 2 uM using kynuramine as substrate measured after 30 mins relative to control; details: 0.5 h, read-out: Activity
[20] = biological target: T2, Amine oxidase [flavin-containing] A; test: Reversible inhibition of MAOA (unknown origin) assessed as residual enzyme activity at 2 uM using kynuramine as substrate pre-incubated for 30 mins followed by dialysis with pH 7.2 sodium phosphate buffer relative to control; details: read-out: Activity

Chain of Acetylcholinesterase (O42275 whole entry): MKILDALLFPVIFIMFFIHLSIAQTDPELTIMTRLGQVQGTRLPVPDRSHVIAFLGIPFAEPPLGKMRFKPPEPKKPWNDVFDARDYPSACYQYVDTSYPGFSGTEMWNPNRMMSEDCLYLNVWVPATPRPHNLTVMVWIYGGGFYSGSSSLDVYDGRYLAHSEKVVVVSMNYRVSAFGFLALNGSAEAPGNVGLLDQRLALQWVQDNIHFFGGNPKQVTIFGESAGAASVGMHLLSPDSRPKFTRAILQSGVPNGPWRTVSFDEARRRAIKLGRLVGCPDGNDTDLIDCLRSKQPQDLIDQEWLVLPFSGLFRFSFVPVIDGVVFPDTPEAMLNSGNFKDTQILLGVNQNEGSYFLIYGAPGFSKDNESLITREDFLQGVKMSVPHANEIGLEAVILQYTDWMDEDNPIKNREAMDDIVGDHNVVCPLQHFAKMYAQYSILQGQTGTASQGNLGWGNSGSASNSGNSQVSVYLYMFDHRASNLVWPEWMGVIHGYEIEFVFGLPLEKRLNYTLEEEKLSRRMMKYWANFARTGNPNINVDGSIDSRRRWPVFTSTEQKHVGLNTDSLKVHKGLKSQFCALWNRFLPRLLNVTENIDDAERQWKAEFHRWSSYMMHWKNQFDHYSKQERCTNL

Row | Structure (SMILES) | IC50 [1] | activity at 10 µM [2] | IC50 [3] | IC50 [4] | activity at 10 µM [5] | Papp at 16 h, 100 ug/ml [6] | further results
1 | NC(=S)N/N=C/c1ccc(Cl)cc1 | > 40 µM | 60.5% | > 10 µM | > 10 µM | 76% |  | 
2 | NC(=S)N/N=C/c1ccc(F)cc1 | 37.9 µM | 86.5% | > 10 µM | > 10 µM | 84.5% |  | 
3 | NC(=S)N/N=C/c1ccccc1F | 30.8 µM | 33.5% | > 10 µM | 7.61 µM | 77.5% | 10.3 ×10⁻⁶ cm/s | Ratio IC50 [7]: > 1.31
4 | NC(=S)N/N=C/c1ccc(Br)cc1 | 31.1 µM | 82.5% | > 10 µM | > 10 µM | 59.5% |  | 
5 | NC(=S)N/N=C/c1ccccc1 [PHENYLTHIOSEMICARBAZONE] | > 40 µM | 75.5% | > 10 µM | > 10 µM | 83.5% |  | 
6 | N=C(S)N/N=C/c1ccc(C(F)(F)F)cc1 | 36.2 µM | 77.5% | > 10 µM | > 10 µM | 92.5% |  | 
7 | C#CCN(C)Cc1ccccc1 [PARGYLINE] |  |  |  |  |  |  | activity at 0.2 µM [8]: 27.9%
8 | CCc1ccc(/C=N/NC(N)=S)cc1 | 26.7 µM | 86.2% | 5.98 µM | > 10 µM | 36% | 9.44 ×10⁻⁶ cm/s | Ratio IC50 [7]: < 0.6
9 | N/C(S)=N/N=C/c1ccc([N+](=O)[O-])cc1 | 15.6 µM | 7.5% | > 10 µM | 1.43 µM | 75.5% | 12.8 ×10⁻⁶ cm/s | Ratio IC50 [7]: > 6.99
10 | COc1ccc(/C=N/NC(N)=S)cc1 | 36.1 µM | 82.1% | 4.99 µM | > 10 µM | 37.5% | 11.2 ×10⁻⁶ cm/s | Ratio IC50 [7]: < 0.5
11 | NC(=S)N/N=C/c1ccc(O)cc1 | > 40 µM | 87.5% | > 10 µM | > 10 µM | 66% |  | 
12 | Cc1ccc(/C=N/NC(N)=S)cc1 | > 40 µM | 91.5% | > 10 µM | > 10 µM | 56.5% |  | 
13 | NC(=S)N/N=C/c1cccc(F)c1 | 26.6 µM | 3% | > 10 µM | 0.27 µM | 75.5% | 13.1 ×10⁻⁶ cm/s | activity at 0.54 µM [9]: 27.4%; Ki [10]: 0.12 µM; Ratio IC50 [7]: > 37; activity at 0.54 µM [11]: 81%
14 | NCCNC(=O)c1ccc(Cl)cn1 [LAZABEMIDE] |  |  | > 80 µM |  |  |  | activity at 0.08 µM [12]: 29.5%; activity at 0.08 µM [13]: 86.9%
15 | CN(C)c1ccc(/C=N/NC(N)=S)cc1 | 35.3 µM | 82.3% | 1.82 µM | > 10 µM | 16.5% | 10.1 ×10⁻⁶ cm/s | activity at 3.6 µM [14]: 34.7%; activity at 3.6 µM [15]: 70.3%; Ki [16]: 0.97 µM
16 | C#CCN(C)CCCOc1ccc(Cl)cc1Cl [CLORGILINE] |  |  |  |  |  |  | activity at 0.014 µM [17]: 21.4%; activity at 0.014 µM [18]: 19.8%
17 | Cc1cccc(N2CC(CO)OC2=O)c1 (stereo not given) [TOLOXATONE] |  |  |  |  |  |  | activity at 2 µM [19]: 30.7%; activity at 2 µM [20]: 74%
